Reference: publication PMC11123991, “Novel 9-Methylanthracene Derivatives as p53 Activators for the Treatment of Glioblastoma Multiforme” (Molecules, 2024)

What was measured:
[1] = system: human glioblastoma cell line U87; assay: MTT antiproliferative assay in U87 cells; format: cell-based; details: for inhibition at 10 µM: read-out: U87 (% Inhib. @ 10 µM); for IC50: mean ± SD (n = 3); for fold decrease in anti-glioma activity: relative to 14a–14c
Description: (§1) U87, Hela, MCF-7, and HHL-5 cells were provided by Chinese Academy of Medical Sciences (Beijing, China). The cancer cells were cultured in DMEM media containing 10% heat-inactivated fetal calf serum. All cells were incubated at 37 °C in a 5% CO2 humidified atmosphere and harvested in the exponential growth phase for assays.
(§2) Cells were seeded in a 96-well plate and treated with the test substance at the desired concentration for 72 h. In cytotoxicity experiments, cells were treated with 10 µM of the test compound or 1 µM XI-011 and doxorubicin as positive controls. DMSO (1%) was used as a negative control. In the IC50 analysis, doxorubicin, XI-011, 13d, 13e, 14a, 14b, and, 14n were applied to HHL-5 at 50, 25, 10, 5, 2.5, 1.25, 0.625, 0.3125, and 0.15625 µM and U87 cells at 10, 7.5, 5, […], 1.25, 0.625, 0.3125, and 0.15625 µM, whereas 30, 10, 3, 0.5, and 0.1 µM were applied to Hela and MCF-7 cells. Treated cells were incubated with an MTT solution for 2 h and then with DMSO to dissolve the crystals. Absorbance was determined at 570 nm using a microplate reader (BioTek, Seattle, DC, USA). IC50 values were calculated using the Hill model in GraphPad Prism 8.0.2 software.

[2] = system: HHL-5 human normal cell line; assay: MTT cytotoxicity assay in normal HHL-5 cells; format: cell-based; details: for IC50: Homo sapiens, HHL-5, normal cell line, 72 h, MTT, mean ± SD (n = 3)
Description: as §1, §2

[3] = system: human breast cancer cell line MCF-7; assay: MTT antiproliferative assay in MCF-7 cells; format: cell-based; details: MCF7, 72 h, mean ± SD (n = 3)
Description: as §1, §2

[4] = system: human cervical cancer cell line HeLa; assay: MTT antiproliferative assay in HeLa cells; format: cell-based; details: for IC50: Homo sapiens, 72 h, MTT, mean ± SD (n = 3)
Description: as §1, §2

p53 = assay: Western blot of p53 expression in U87 cells; format: cell-based, human; details: U87, 24 h, 0.5, 1 and 2 µM
Description: (§3) Protein levels in U87 cells treated with test compound 13e (0.5, 1, and 2 µM) for 24 h were measured by Western blot analysis as described previously. Briefly, after 13e treatment, cells were lysed in RIPA buffer. Proteins were separated by 8% SDS-PAGE and transferred to a PVDF membrane (Millipore, Billerica, MA, USA). The membrane was incubated with an anti-MDM4 antibody (A300-287A, Bethyl Laboratories, Montgomery, TX, USA), anti-p53 antibody (sc-126, Santa Cruz Biotechnology, Inc., Dallas, TX, USA), or anti-GAPDH antibody (AG019, Beyotime, Shanghai, China) followed by an HRP-linked secondary antibody (A0216, Beyotime) for 2 h. ECL reagent was used for chemiluminescent development. Densitometric analysis of protein bands was performed using ImageJ V.1.8.0 software.

MDM4 [5] = assay: Western blot of MDM4 expression in U87 cells; format: cell-based, human; details: U87, 24 h, 0.5, 1 and 2 µM
Description: as §3

U87 cells [6] = assay: Flow cytometric cell cycle analysis in U87 cells; format: cell-based, human; details: U87, 24 h, 0.5, 1 and 2 µM
Description: Cells were cultured for 24 h in a 6-well plate, and then the test compound (0.5, 1, and 2 µM) was added to the culture medium. After treatment for 24 h, the cells were harvested and fixed at 4 °C overnight in an ethanol solution (80%). The cells were washed with PBS and stained with a PI solution ([…] in PBS). After 30 min, the cells were subjected to flow cytometry (C6; BD, Franklin Lakes, NJ, USA). The recorded cell fluorescence was used to analyze the cell cycle distribution.

U87 cells [7] = assay: Flow cytometric apoptosis analysis in U87 cells; format: cell-based, human; details: 24 h
Description: Reducing MDM4 expression restores the p53 function and increases apoptotic cells. The apoptotic effects of compound 13e were determined in U87 cells by flow cytometry. […] 13e induced 21% apoptosis at 1 µM, which was slightly lower than the 23% apoptosis induced by XI-011. At 2 µM 13e, apoptosis was up to 25.9%. […] The mechanism by which 13e induces apoptosis in U87 cells may be related to its ability to downregulate MDM4 expression and stabilize p53 protein.

MDM4 [8] = details: Figure 1, representative MDM4 inhibitors; reference not given; cited from earlier work
[9] = Homo sapiens, U-87 MG, 72 h, 10 µM, 72 h, MTT, triplicates
[10] = Homo sapiens, U-87 MG, 72 h, MTT

Cc1ccc(CSC(=N)N)c2ccccc12 [12a]
inhibition at 10 µM [1, 9]: 15.2%

N=C(N)SCc1cccc2ccccc12 [12b]
inhibition at 10 µM [1, 9]: 9%

Cc1ccc(CSC(=N)N)cc1 [12c]
inhibition at 10 µM [1, 9]: 11.8%

N=C(N)SCc1ccc([N+](=O)[O-])cc1 [12d]
inhibition at 10 µM [1, 9]: 14.8%

N=C(N)SCc1ccc2ccccc2c1 [12e]
inhibition at 10 µM [1, 9]: 1.5%

Cc1ccc(CSC(=N)NN)c2ccccc12 [12f]
inhibition at 10 µM [1, 9]: 13.1%

N=C(NN)SCc1cccc2ccccc12 [12g]
inhibition at 10 µM [1, 9]: 14.5%

CNC(=N)SCc1ccc(C)c2ccccc12 [12h]
inhibition at 10 µM [1, 9]: 9.9%

CC(=O)NC(=N)SCc1ccc(C)c2ccccc12 [12i]
inhibition at 10 µM [1, 9]: 2.7%

CC(=O)NC(=N)SCc1ccc(C)cc1 [12j]
inhibition at 10 µM [1, 9]: 6.8%

N=C(NN)SCc1ccc2ccccc2n1 [12k]
inhibition at 10 µM [1, 9]: 10.7%

CNC(=N)SCc1ccc2ccccc2n1 [12l]
inhibition at 10 µM [1, 9]: 11.3%

Cc1c2ccccc2c(CSC(=N)NN)c2ccccc12 [13a]
inhibition at 10 µM [1, 9]: 57.9% | fold more potency than 12f ([1]; U87 inhibition rate at 10 µM): approximately 4 fold

CC(=O)NC(=N)SCc1c2ccccc2c(C)c2ccccc12 [13b]
inhibition at 10 µM [1, 9]: 19.3%

Cc1c2ccccc2c(CSC(=N)NC(=N)N)c2ccccc12 [13c]
inhibition at 10 µM [1, 9]: 35.4%

CNC(=N)SCc1c2ccccc2c(C)c2ccccc12 [13d]
IC50 [2]: 850 ± 100 nM | IC50 [3]: 4740 ± 200 nM | IC50 [4]: 5660 ± 290 nM | IC50 ([1]; 72 h, MTT): 1620 ± 20 nM | inhibition at 10 µM [1, 9]: 93.3% | IC50 [1, 10]: < 2000 nM

Cc1c2ccccc2c(CSC(=N)N(C)N)c2ccccc12 [13e]
p53 protein expression (p53): significantly upregulated p53 protein expression | MDM4 expression (MDM4 [5]): dose-dependent suppression of MDM4 expression | fold lesser toxicity to human normal HHL-5 cells than to U87 cells ([2]; HHL-5 IC50 versus U87 IC50): 2 fold | IC50 [2]: 1110 ± 80 nM | IC50 [3]: 970 ± 110 nM | IC50 [4]: 1630 ± 250 nM | cell cycle effect (U87 cells [6]): arrested U87 cells in G2/M phase | apoptosis (U87 cells [7]; U87, 1 µM): 21% | apoptosis (U87 cells [7]; U87, 2 µM): 25.9% | inhibition at 10 µM [1, 9]: 88.6%

CC(C)=NNC(=N)SCc1c2ccccc2c(C)c2ccccc12 [13f]
inhibition at 10 µM [1, 9]: 65.1% | fold potency improvement in U87 cells compared with aryl-derived compounds ([1]; U87 inhibition rate at 10 µM): 3–4 fold

Cc1c2ccccc2c(CSc2ncc[nH]2)c2ccccc12 [13g]
inhibition at 10 µM [1, 9]: 41.2%

Cc1c2ccccc2c(CSC2=NC(=O)CC(=O)N2)c2ccccc12 [13h]
inhibition at 10 µM [1, 9]: 0.7%

CCOC(=O)c1cnc(SCc2c3ccccc3c(C)c3ccccc23)[nH]1 [13i]
inhibition at 10 µM [1, 9]: 31.2%

Cc1c2ccccc2c(CSC(=N)Nc2ccccc2)c2ccccc12 [13j]
inhibition at 10 µM [1, 9]: 13.3%

Cc1c2ccccc2c(CS/C(=N\c2ccccc2)Nc2ccccc2)c2ccccc12 [13k]
inhibition at 10 µM [1, 9]: 28.1%

CCCCCCNC(=N)SCc1c2ccccc2c(C)c2ccccc12 [13l]
inhibition at 10 µM [1, 9]: 86.7% | fold potency improvement in U87 cells compared with aryl-derived compounds ([1]; U87 inhibition rate at 10 µM): 3–4 fold

CCc1c2ccccc2c(CSC(=N)N)c2ccccc12 [14a]
IC50 [2]: 1510 ± 160 nM | IC50 [3]: 4560 ± 30 nM | IC50 [4]: 3640 ± 270 nM | IC50 ([1]; 72 h, MTT): 1240 ± 240 nM | inhibition at 10 µM [1, 9]: 79% | IC50 [1, 10]: < 2000 nM

CCc1c2ccccc2c(CSC(=N)NC)c2ccccc12 [14b]
IC50 [2]: 1620 ± 130 nM | IC50 [3]: 4550 ± 270 nM | IC50 [4]: 2660 ± 190 nM | IC50 ([1]; 72 h, MTT): 1350 ± 100 nM | inhibition at 10 µM [1, 9]: 94.7% | IC50 [1, 10]: < 2000 nM

CCc1c2ccccc2c(CSC(=N)N(C)N)c2ccccc12 [14c]
inhibition at 10 µM [1, 9]: 83.6%

CCc1c2ccccc2c(CSC(=N)NC(=N)N)c2ccccc12 [14d]
inhibition at 10 µM [1, 9]: 17.3% | fold decrease in anti-glioma activity ([1]; U87 inhibition rate at 10 µM): 3~4 fold

CCc1c2ccccc2c(CSC(=N)NC(C)=O)c2ccccc12 [14e]
inhibition at 10 µM [1, 9]: 19.3% | fold decrease in anti-glioma activity ([1]; U87 inhibition rate at 10 µM): 3~4 fold

CCCCCCNC(=N)SCc1c2ccccc2c(CC)c2ccccc12 [14f]
inhibition at 10 µM [1, 9]: 43.6% | fold decrease in anti-glioma activity ([1]; U87 inhibition rate at 10 µM): 3~4 fold

CCc1c2ccccc2c(CSC(=N)Nc2ccc(C(F)(F)F)cc2)c2ccccc12 [14g]
inhibition at 10 µM [1, 9]: 28% | fold decrease in anti-glioma activity ([1]; U87 inhibition rate at 10 µM): 3~4 fold

CCCc1c2ccccc2c(CSC(=N)N)c2ccccc12 [14h]
inhibition at 10 µM [1, 9]: 64.6%

CNC(=N)SCc1c2ccccc2cc2ccccc12 [14i]
U87 (% Inhib. @ 10 µM) ([1]; 10 µM, 72 h, MTT, triplicates): 76.4% | inhibition at 10 µM [1, 9]: 83%

N=C(NN)SCc1c2ccccc2cc2ccccc12 [14j]
inhibition at 10 µM [1, 9]: 11.8%

CC(C)=NNC(=N)SCc1c2ccccc2cc2ccccc12 [14k]
inhibition at 10 µM [1, 9]: 14.2%

CC(=O)NC(=N)SCc1c2ccccc2cc2ccccc12 [14l]
inhibition at 10 µM [1, 9]: 0.7%

N=C(N)SCc1c2ccccc2c(Br)c2ccccc12 [14m]
inhibition at 10 µM [1, 9]: 36.8%

CNC(=N)SCc1c2ccccc2c(Br)c2ccccc12 [14n]
IC50 [2]: 1670 ± 160 nM | IC50 [3]: 7600 ± 1370 nM | IC50 [4]: 7740 ± 810 nM | fold reduction in anti-cervical cancer activity ([4]; bromo versus methyl and ethyl analogs (14a, 14b, XI-011)): 1–2 fold | IC50 ([1]; 72 h, MTT): 1840 ± 120 nM | inhibition at 10 µM [1, 9]: 86.5% | IC50 [1, 10]: < 2000 nM

N=C(NN)SCc1c2ccccc2c(Br)c2ccccc12 [14o]
inhibition at 10 µM [1, 9]: 50.7%

N=C(NN)SCc1c2ccccc2nc2ccccc12 [14p]
inhibition at 10 µM [1, 9]: 19%

N=C(N)SCc1c2ccccc2nc2ccccc12 [14q]
inhibition at 10 µM [1, 9]: 12.5%

CCCCCCNC(=N)SCc1c2ccccc2nc2ccccc12 [14r]
inhibition at 10 µM [1, 9]: 2.1%

N=C(N)SC1c2ccccc2CCc2ccccc21 [14s]
inhibition at 10 µM [1, 9]: 6.9% | fold less potency than XI-011 ([1]; U87 inhibition rate at 10 µM): approximately 12 fold

COc1cccc2c1C(=O)c1c(O)c3c(c(O)c1C2=O)C[C@@](O)(C(=O)CO)C[C@@H]3O[C@H]1C[C@H](N)[C@H](O)[C@H](C)O1 [DOX, doxorubicin, reference compound]
IC50 [2]: 320 ± 20 nM | IC50 [3]: 1320 ± 160 nM | IC50 [4]: 540 ± 50 nM | inhibition at 10 µM [1, 9]: 81.1% | IC50 [1, 10]: 440 ± 60 nM

CCOc1cc(/C=C2\C(=O)N(c3ccccc3)N=C2C)cc(Cl)c1OCC(=O)OC [SJ-172550]
IC50 (MDM4 [8]): 870 nM

Cc1c2ccccc2c(CSC(=N)N)c2ccccc12 [XI-011, (10-methylanthracen-9-yl)methyl carbamimidothioate, reference compound]
IC50 [2]: 550 ± 30 nM | IC50 [3]: 4870 ± 300 nM | IC50 [4]: 1510 ± 60 nM | apoptosis (U87 cells [7]; U87, 1 µM): 23% | inhibition at 10 µM [1, 9]: 91.8% | IC50 [1, 10]: 690 ± 20 nM
